Activity calls are given as the source filed them. The calls are words filed in the database; no cut-off is given here.
Tests used:
Clostridioides difficile = assay: Antibacterial activity against Clostridium difficile at 0.5 % measured after 8 mins by broth microdilution analysis; type: functional, organism-based
CHO-K1 = assay: Cytotoxicity against CHO-K1 cells assessed as reduction in cell viability incubated for 24 hrs by MTT assay; type: toxicity, cell-based, Cricetulus griseus; conditions: chinese hamster, cho-k1, 24 h
Human alphaherpesvirus 3 = assay: Antiviral activity against Varicella zoster-virus assessed as reduction factor at 0.005 % measured for 5 mins by crystal violet staining based microscopic analysis; type: functional
Aspergillus versicolor = assay: Antifungal activity against Aspergillus versicolor EXF-8692 assessed as inhibition of fungal growth at 100 uM measured after 72 hrs; type: functional, organism-based
Fusarium dimerum = assay: Antifungal activity against Fusarium dimerum EXF-8427 assessed as inhibition of fungal growth at 100 uM measured after 72 hrs; type: functional, organism-based
Aspergillus niger = assay: Antifungal activity against Aspergillus niger EXF-10185 assessed as inhibition of fungal growth at 100 uM measured after 72 hrs; type: functional, organism-based
Penicillium chrysogenum = assay: Antifungal activity against Penicillium chrysogenum EXF-1818 assessed as inhibition of fungal growth at 100 uM measured after 72 hrs; type: functional, organism-based

`CCCCCCCCCCCC[N+]1(CCO)CCOCC1.[Br-]` was tested, and the Activity (Clostridioides difficile) was “Active” and the Activity (CHO-K1) was “Toxic”.
With `CCCCCCCCCCCCCCCC[N+]1(CCO)CCOCC1.[Br-]` the Activity (CHO-K1) was “Toxic”.
`CCCCCCCCCCCCCC[N+]1(CCO)CCOCC1.[Br-]` was tested, and the Activity (CHO-K1) was “Toxic”.
`CCCCCCCCCCCCCCCC[n+]1cccc(OC)c1.[Br-]` was tested, and the “fold change (FC)” value (Human alphaherpesvirus 3) was 4.68.
`CCCCCCCC[N+](C)(CCCCCCCC)Cc1ccccc1.[Br-]` was tested, and the “fold change (FC)” value (Human alphaherpesvirus 3) was 3.84.
For `CCCCCCCCCCCCCCCC[N+](C)(C)CCCCCCCC.[Br-]`, the “fold change (FC)” value (Human alphaherpesvirus 3) was 3.83.
For `CCCCCCCCCCCC[N+](C)(C)CCCCCCCC`, the Activity (Aspergillus versicolor) was “Active”, the Activity (Fusarium dimerum) was “Active” and the Activity (Clostridioides difficile) was “Active”. The Activity (Aspergillus niger) was “Active” and the Activity (Penicillium chrysogenum) was “Active”.
